Test system: HCT116 and SW480 cells
Assay: EMT markers by immunoblotting and RT–qPCR
Format: cell-based, human
Conditions: GREM1-CM + GREM1 BAb, + SB505124 (1 µM) or + different concentrations of sb4 (sb4: immunoblotting)
Experimental: To investigate the effect of secreted GREM1 on CRC cells, an in vitro GREM1 secretion system was established using HEK293 cells. Stably GREM1-expressing cells (pcDNA3.1-GREM1) and empty-vector transfected cells (pcDNA3.1) were cultured in DMEM/F12 medium with 10% FBS until 40% confluence. After complete removal of the normal culture medium, HEK293-GREM1 and HEK293-Vec cells were continuously cultured in DMEM/F12 medium without FBS for 5 days before medium collection. GREM1 or Vector conditioned medium (GREM1-CM/Vec-CM) was then centrifuged at 1000 rpm for 30 min and the supernatant was collected for further study.
Protein was extracted from the cells with RIPA buffer (Beyotime, P0018) or NP40 lysis buffer (Beyotime, P0013F) and separated by SDS-PAGE, and transferred to polyvinylidene difluoride membranes. […] Band intensity was quantified using Fiji (ImageJ) by grayscale analysis.
Total RNA was extracted using Trizol reagent (Invitrogen, 15596026). […] The SYBR Green Premix Pro Taq HS qPCR Kit (Accurate Biology, AG11701) was then used to quantify mRNA expression according to the manufacturer’s instructions. All results were calculated using the 2^−ΔΔCt method. […]

Cc1cccc(-c2[nH]c(C(C)(C)C)nc2-c2ccc3c(c2)OCO3)n1 [SB505124]
GREM1-CM-induced EMT, effect of treatment: significantly blocked GREM1-CM–induced p-SMAD2/3 activation and EMT
